Marks after values point to notes of the source that are not given here. A value given as a limit tells only on which side of the number the result lay.

A short description of data set [1]: Liver and plasma concentrations in c57/bl6 mice. In kind it is in vivo. The settings on record: 20 mg/kg PO, 4 h. The procedure:
[The procedure below names another organism; the source says it served here with some conditions changed.] (§1) Plasma and liver (target organ) concentrations of test compounds were determined in rats following a single per os (PO) administration of the test compounds. Male Sprague Dawley rats (6-8 weeks of age, Charles River Labs) were fasted overnight and a single dose of test compounds (10 mg/kg; as a suspension in 0.5% methyl cellulose) was administered by PO gavage. Rats were then sacrificed at 4 and 24 h after administration of the test compounds, and plasma and liver tissue samples were collected. Liver tissue samples were homogenized in 5 volumes of water:acetonitrile (50/50; v/v) mixture using a bead mill homogenizer. Plasma and liver homogenate samples were processed by protein precipitation using acetonitrile and the concentrations of the test compounds were determined by liquid chromatography-tandem mass spectrometry (SciEx triple quad 5500+ with Exion UPLC).
(§2) Liver and plasma exposures at the 4 h and 24 h timepoints for the various compounds are described in Table 5 below. Measured compound concentrations are as follows: ++++>10 μM; 10 μM≥+++>5 μM; 5 μM≥++>1 μM; 1 μM≥+>0.25 μM; and 0.25 μM≥−.

Data set [2] deals with T1, human recombinant C-terminal His-tagged LDHA (Homo sapiens, UniProt P00338).
T1 construct: His (C)
Briefly: Human LDHA enzyme assay. The settings on record: 50 μM pyruvate, 50 μM NADH, no HSA. In kind it is biochemical. How it is done: (§3) Compounds were dissolved in DMSO and preincubated with human recombinant C-terminal His-tagged LDHA (0.070 μg/mL) for 10 min at room temperature in assay buffer consisting 50 mM Tris, pH 7.5 and 100 mM NaCl in black walled, clear bottom, non-binding 96-well plates. Equal volumes of substrate solution containing 100 μM of pyruvate and 100 μM of NADH in assay buffer was added to each well (final concentration 0.035 μg/mL enzyme, 50 μM pyruvate, 50 μM NADH, and 1% DMSO). For human serum albumin (HSA) shift assay, the compounds were preincubated with the enzyme in assay buffer containing 20% HSA before substrate addition (final concentration 10% HSA). The reaction was monitored at 340 nm on a plate reader (Molecular Devices) in kinetic mode for 15 min. The rate of the reaction was determined by plotting absorbance vs time.

Data set [3] concerns the target T1, human recombinant C-terminal His-tagged LDHA. Briefly: Human LDHA enzyme assay, human serum albumin (HSA) shift. In kind it is biochemical. The settings on record: final concentration 10% HSA. The procedure:
as §3

Data set [4] deals with fresh primary mouse hepatocytes. Briefly: Primary mouse hepatocyte assay (lactate production). In kind it is cell-based. The procedure:
Compounds were evaluated in an ex vivo assay consisting of fresh primary mouse hepatocytes. Hepatocytes were isolated from wild type mice (C57BL/6NCrl from Charles River Labs) using a two-step collagenase perfusion technique which involves a sequential perfusion of anesthetized mice with Hanks' balanced salt solution and collagenase. Following isolation, viable wild type hepatocytes (0.1 M cells/well) were incubated with test compound in presence of pyruvate and compound potency was evaluated by measuring the lactate produced by the cells using liquid chromatography coupled to mass spectrometry. Chromatographic separation was achieved on an XDB-C18 4.6×50 mm column (Agilent, Cat #927975-902) at a flow rate of 1 mL/min Mobile phase A consisted of 0.1% formic acid in water and mobile phase B consisted of acetonitrile. A gradient program was initiated starting at 5% B which was held for 1 minutes, then ramped from 5% to 95% B over 1 minute. After holding at 95% B for 1 minute, the program changed back to 5% B. The column was equilibrated with 5% B for […] before the next injection. The mass spectrometer was operated in negative mode with electrospray ionization. The following transition along with their collision energy (CE) were used: 89→43 (CE: −16 V) for lactate and 92→45 (CE: −16 V) for ^13C3-Lactate (internal standard).

Data set [5] is described as follows: Liver-targeted tissue distribution profile study in rats. In kind it is in vivo, Sprague Dawley rats. As to conditions: rat, single 10 mg/kg PO. How it is done:
as §1, §2

The mark [6] stands for this setting: Run at 0.4M cells/well concentration of hepatocytes.

Broadly, the IC50 is the point on the concentration scale where inhibition reaches its midpoint. Regarding `Cc1c(Cc2ccc(S(N)(=O)=O)c(F)c2)c(-c2ccc(F)cc2)nn1-c1nc(C(=O)O)cs1` [Example 3, 2-(4-(3-Fluoro-4-sulfamoylbenzyl)-3-(4-fluorophenyl)-5-methyl-1H-pyrazol-1-yl)thiazole-4-carboxylic acid], the “Measured Compound Concentrations Liver - 4 h” value in data set [1] is on record as “++++* (++++>10 μM)”. For the same molecule, the “Measured Compound Concentrations Plasma - 4 h” value in data set [1] was “−* (0.25 μM≥−)”. Further, the half-maximal inhibitory concentration (IC50) in data set [2] was less than 1 nM; in data set [3] it was 1 to 10 nM; in data set [4] (setting [6]), 250 to 1000 nM.

In the case of `CCc1c(Cc2ccc(S(N)(=O)=O)cc2)c(-c2ccc(F)cc2)nn1-c1nc(C(=O)O)cs1` [Example 4, 2-(5-ethyl-3-(4-fluorophenyl)-4-(4-sulfamoylbenzyl)-1H-pyrazol-1-yl)thiazole-4-carboxylic acid], the “Measured Compound Concentrations Liver - 4 h” value in data set [1] was “++* (5 μM≥++>1 μM)”. Moreover, in data set [1], the “Measured Compound Concentrations Plasma - 4 h” value is on record as “−* (0.25 μM≥−)”. In addition, the 50% inhibitory concentration (IC50) in data set [2] lay in the range of 1 to 10 nM; in data set [3] it was 10 to 100 nM; in data set [4] (setting [6]), 250 to 1000 nM.

On to `NS(=O)(=O)c1ccc(Cc2c(-c3cccc(Cl)c3)nn(-c3nc(C(=O)O)cs3)c2CC2CC2)cc1F` [Example 17, 2-(3-(3-chlorophenyl)-5-(cyclopropylmethyl)-4-(3-fluoro-4-sulfamoylbenzyl)-1H-pyrazol-1-yl)thiazole-4-carboxylic acid], for which, in data set [5], the “Measured Compound Concentrations Liver - 4 h” value was “+++ (10 μM≥+++>5 μM)”, the “Measured Compound Concentrations Liver - 24 h” value is recorded as “− (0.25 μM≥−)”, the “Measured Compound Concentrations Plasma - 4 h” value is recorded as “− (0.25 μM≥−)” and the “Measured Compound Concentrations Plasma - 24 h” value was “− (0.25 μM≥−)”. For the same molecule, in data set [2], the half-maximal inhibitory concentration (IC50) is less than 1 nM. For the same molecule, in data set [3], the IC50 lay within 1 to 10 nM. In data set [4] (0.1 M cells/well), the IC50 was less than 100 nM.

Take `NS(=O)(=O)c1ccc(Cc2c(-c3cccc(C(F)(F)F)c3)nn(-c3nc(C(=O)O)cs3)c2CC2CC2)cc1F` [Example 18, 2-(5-(cyclopropylmethyl)-4-(3-fluoro-4-sulfamoylbenzyl)-3-(3-(trifluoromethyl)phenyl)-1H-pyrazol-1-yl)thiazole-4-carboxylic acid]: in data set [5], the “Measured Compound Concentrations Liver - 4 h” value is “+++ (10 μM≥+++>5 μM)”, the “Measured Compound Concentrations Liver - 24 h” value is listed as “− (0.25 μM≥−)”, the “Measured Compound Concentrations Plasma - 4 h” value is listed as “− (0.25 μM≥−)” and the “Measured Compound Concentrations Plasma - 24 h” value was “− (0.25 μM≥−)”. Also, the IC50 in data set [2] was less than 1 nM. For the same molecule, in data set [3], the IC50 lay in the range of 1 to 10 nM. The molecule further yielded a half-maximal inhibitory concentration (IC50) in data set [4] (0.1 M cells/well) of less than 100 nM.

Take `NS(=O)(=O)c1ccc(Cc2c(-c3cccc(OC(F)(F)F)c3)nn(-c3nc(C(=O)O)cs3)c2CC2CC2)cc1F` [Example 19, 2-(5-(cyclopropylmethyl)-4-(3-fluoro-4-sulfamoylbenzyl)-3-(3-(trifluoromethoxy)phenyl)-1H-pyrazol-1-yl)thiazole-4-carboxylic acid]: in data set [5], the “Measured Compound Concentrations Liver - 4 h” value is recorded as “+++ (10 μM≥+++>5 μM)”, the “Measured Compound Concentrations Liver - 24 h” value was “− (0.25 μM≥−)”, the “Measured Compound Concentrations Plasma - 4 h” value is reported as “− (0.25 μM≥−)” and the “Measured Compound Concentrations Plasma - 24 h” value is given as “− (0.25 μM≥−)”. In data set [2], the IC50 is less than 1 nM. Also, the 50% inhibitory concentration (IC50) in data set [3] fell in the range of 1 to 10 nM. The IC50 in data set [4] (0.1 M cells/well) is 100 to 250 nM.

As for `NS(=O)(=O)c1ccc(Cc2c(-c3ccccc3)nn(-c3nc(C(=O)O)cs3)c2CC2CC2)cc1F` [Example 20, 2-(5-(cyclopropylmethyl)-4-(3-fluoro-4-sulfamoylbenzyl)-3-phenyl-1H-pyrazol-1-yl)thiazole-4-carboxylic acid], in data set [5], the “Measured Compound Concentrations Liver - 4 h” value is on record as “++++ (++++>10 μM)”, the “Measured Compound Concentrations Liver - 24 h” value is recorded as “− (0.25 μM≥−)”, the “Measured Compound Concentrations Plasma - 4 h” value is recorded as “− (0.25 μM≥−)” and the “Measured Compound Concentrations Plasma - 24 h” value is “− (0.25 μM≥−)”. For the same molecule, the 50% inhibitory concentration (IC50) in data set [2] is less than 1 nM. Further, in data set [3], the IC50 fell in the range of 1 to 10 nM. In addition, the concentration for half-maximal inhibition (IC50) in data set [4] (0.1 M cells/well) was less than 100 nM.

As for `NS(=O)(=O)c1ccc(Cc2c(-c3ccc(C(F)F)cc3)nn(-c3nc(C(=O)O)cs3)c2CC2CC2)cc1F` [Example 21, 2-(5-(cyclopropylmethyl)-3-(4-(difluoromethyl)phenyl)-4-(3-fluoro-4-sulfamoylbenzyl)-1H-pyrazol-1-yl)thiazole-4-carboxylic acid], in data set [5], the “Measured Compound Concentrations Liver - 4 h” value is recorded as “++ (5 μM≥++>1 μM)”, the “Measured Compound Concentrations Liver - 24 h” value is recorded as “− (0.25 μM≥−)”, the “Measured Compound Concentrations Plasma - 4 h” value was “− (0.25 μM≥−)” and the “Measured Compound Concentrations Plasma - 24 h” value is on record as “− (0.25 μM≥−)”. Moreover, the concentration for half-maximal inhibition (IC50) in data set [2] is less than 1 nM. Moreover, the concentration for half-maximal inhibition (IC50) in data set [3] is 10 to 100 nM. The half-maximal inhibitory concentration (IC50) in data set [4] (0.1 M cells/well) was less than 100 nM.

In the case of `NS(=O)(=O)c1ccc(Cc2c(-c3cccc(OCC(F)(F)F)c3)nn(-c3nc(C(=O)O)cs3)c2CC2CC2)cc1F` [Example 22, 2-(5-(cyclopropylmethyl)-4-(3-fluoro-4-sulfamoylbenzyl)-3-(3-(2,2,2-trifluoroethoxy)phenyl)-1H-pyrazol-1-yl)thiazole-4-carboxylic acid], in data set [5], the “Measured Compound Concentrations Liver - 4 h” value was “++ (5 μM≥++>1 μM)”, the “Measured Compound Concentrations Liver - 24 h” value is “− (0.25 μM≥−)”, the “Measured Compound Concentrations Plasma - 4 h” value is given as “− (0.25 μM≥−)” and the “Measured Compound Concentrations Plasma - 24 h” value was “− (0.25 μM≥−)”. Also, in data set [2], the 50% inhibitory concentration (IC50) is less than 1 nM. Also, the IC50 in data set [3] lay in the range of 1 to 10 nM. The molecule further came in with an IC50 in data set [4] (0.1 M cells/well) of less than 100 nM.

In the case of `NS(=O)(=O)c1ccc(Cc2c(-c3ccccc3F)nn(-c3nc(C(=O)O)cs3)c2CC2CC2)cc1F` [Example 25], in data set [5], the “Measured Compound Concentrations Liver - 4 h” value was “+++ (10 μM≥+++>5 μM)”, the “Measured Compound Concentrations Liver - 24 h” value was “− (0.25 μM≥−)”, the “Measured Compound Concentrations Plasma - 4 h” value is “− (0.25 μM≥−)” and the “Measured Compound Concentrations Plasma - 24 h” value is “− (0.25 μM≥−)”. Further, the IC50 in data set [2] is less than 1 nM. For the same molecule, the IC50 in data set [3] was in the range of 10 to 100 nM. The 50% inhibitory concentration (IC50) in data set [4] (0.1 M cells/well) was in the range of 100 to 250 nM.

`NS(=O)(=O)c1ccc(Cc2c(-c3cc(Cl)cc(Cl)c3)nn(-c3nc(C(=O)O)cs3)c2CC2CC2)cc1F` [Example 26, 2-(5-(cyclopropylmethyl)-3-(3,5-dichlorophenyl)-4-(3-fluoro-4-sulfamoylbenzyl)-1H-pyrazol-1-yl)thiazole-4-carboxylic acid]: in data set [5], the “Measured Compound Concentrations Liver - 4 h” value was “++ (5 μM≥++>1 μM)”, the “Measured Compound Concentrations Liver - 24 h” value is reported as “− (0.25 μM≥−)”, the “Measured Compound Concentrations Plasma - 4 h” value is recorded as “− (0.25 μM≥−)” and the “Measured Compound Concentrations Plasma - 24 h” value is “− (0.25 μM≥−)”. Further, in data set [2], the concentration for half-maximal inhibition (IC50) was less than 1 nM. Moreover, the IC50 in data set [3] lay within 10 to 100 nM. Also, in data set [4] (0.1 M cells/well), the 50% inhibitory concentration (IC50) lay within 100 to 250 nM.

With `NS(=O)(=O)c1ccc(Cc2c(-c3cc(F)c(F)c(F)c3)nn(-c3nc(C(=O)O)cs3)c2CC2CC2)cc1F` [Example 28, 2-(5-(Cyclopropylmethyl)-4-(3-fluoro-4-sulfamoylbenzyl)-3-(3,4,5-trifluorophenyl)-1H-pyrazol-1-yl)thiazole-4-carboxylic acid], in data set [5], the “Measured Compound Concentrations Liver - 4 h” value was “+++ (10 μM≥+++>5 μM)”, the “Measured Compound Concentrations Liver - 24 h” value is “− (0.25 μM≥−)”, the “Measured Compound Concentrations Plasma - 4 h” value was “− (0.25 μM≥−)” and the “Measured Compound Concentrations Plasma - 24 h” value is on record as “− (0.25 μM≥−)”. For the same molecule, the IC50 in data set [2] is less than 1 nM. The half-maximal inhibitory concentration (IC50) in data set [3] fell in the range of 1 to 10 nM. This molecule also returned a half-maximal inhibitory concentration (IC50) in data set [4] (0.1 M cells/well) of less than 100 nM.

Source of the values: patent US20230183228A1, “SUBSTITUTED PYRAZOLYL COMPOUNDS AND METHODS OF USE THEREOF” (Chinook Therapeutics Canada, Inc., priority 2020, published 2023).
